Laboratory results from patent publication US20240417404A1, “CRYSTALLINE FORMS OF N-[4-[4-(4-MORPHOLINYL)-7H-PYRROLO[2,3-d]PYRIMIDIN-6-YL]PHENYL]-4-[[3(R)-[(1-OXO-2-PROPEN-1-YL)AMINO]-1-[sequence]]METHYL]-2-PYRIDINECARBOXAMIDE AS IRREVERSIBLE INHIBITORS OF MENIN-MLL INTERACTION” (BIOMEA FUSION, INC., priority 2023, published 2024).
Entries after “also recorded” stand apart in the source; their conditions may differ. Where two headings read alike, the source gives them in different places.

Key:
DOHH2 = assay: DLBCL cell line proliferation (Cell Titer Glo, four days): DOHH2; type: cell-based; conditions: DOHH2, DHL, MYC/BCL2
Method: (§1) DLBCL cell line TOLEDO was cultured in the presence of Compound A or clinical reversible menin inhibitors for six and fourteen hours. Menin protein expression was reduced up to 60% at 1 μM by Compound A after fourteen hours compared to clinical reversible inhibitors at <20% at similar concentrations. Menin protein expression was measured by the Wes system and analyzed using the Compass software (automated western blotting, Protein Simple). Signal was normalized to GAPDH and referenced to DMSO control (FIG. 36E). DLBCL and MM cell lines were cultured with Compound A, bortezomib (PS-341), or DMSO for four days and cell proliferation was measured by Cell Titer Glo. Ex vivo studies of DLBCL and MM models were conducted by measurement of cell proliferation (Cell Titer Glo) after six days of treatment with Compound A, PS-341, or DMSO control.

[1] = test system: KRAS mutated CRC, NSCLC and pancreatic cancer cell lines; assay: Proliferation of KRAS mutated cell lines (CellTiter-Glo, four days); type: cell-based, human; conditions: for GI50: Homo sapiens, Pancreatic cancer cell
Method: The inhibitory effect on cell proliferation was investigated in the human pancreas KRAS mutated cell lines MIA PaCa-2, HuP-T4, HPAF-II, human lung KRAS mutated cell line NCI-H358, and human colon KRAS mutated cell lines SW837, SW60, and NCI-H747. […] Cells were grown by adhering to culture flasks, and maintained at 70%-80% confluency.
ATP is present in all metabolically active cells and is considered as a marker for viable cells. […] The cell proliferation assay was performed using a 96-well plate format.
Eight concentrations of test compound were assessed in duplicate for each experimental run. 100% cell proliferation is represented by the untreated cells (0.2% DMSO).
200 μL of cell suspension were added to each well of a 96-well plate.
Cell viability was measured using CellTiter Glo. […] Cell viability was measured using CellTiter Glo.

[2] = test system: MM patient-derived bone marrow mononuclear cells (BMMCs); assay: Ex vivo MM patient-derived bone marrow mononuclear cells (Cell Titer Glo, six days); type: cell-based; conditions: Homo sapiens, BMMC; panel of newly diagnosed and R/R ex vivo MM samples, single agent
Method: Compound A was tested against a THL cell line (VAL), and a DEL cell line (U2932). An expanded panel of DHL cell lines were tested for sensitivity to Compound A. Ex vivo patient samples of THL and MYC-amplified DLBCL were tested with Compound A. Sensitivity of THL and MYC-driven DLBCL in both in vitro and ex vivo models were compared with clinical reversible menin inhibitors. Compound A was tested against a panel of MM cell lines and ex vivo MM patient samples of p53del, 13qdel, and relapsed/refractory cases.
as §1

[3] = test system: streptozotocin (STZ) induced type II diabetes in Wistar Han rats; assay: Glycemic control in streptozotocin-induced diabetic rats, 16-day dosing; type: in vivo, rat
Method: The present example provides the ability of Compound 10 to restore glycemic control to streptozotocin (STZ) induced type II diabetes in Wistar Han rats. Fahmy et al., 2017, World J. Pharm. Med. Res. 3(3):37-39.
Control and test compounds were stored at 4° C. and prepared weekly as needed. The vehicle for positive control pioglitazone was 0.25% carboxymethylcellulose and 1% Tween® 80 in reverse osmosis deionized water. The vehicle for Compound 10 was 10% DMSO, 10% Solutol HS 15, and 80% (10% hydroxypropyl-β-cyclodextrin in 50 mM citrate buffer at pH 3.0). The vehicle for streptozotocin pretreatment was 0.1 M sodium citrate pH 4.5.
On Day −3, twenty-four Wistar Han rats (plus eight spare Wistar Han rats) were measured for body weight and non-fasting glucose. Starting on Day −42, D12451 Research Diet was provided ad libitum throughout the study, except during designated procedures, as was water. In order to minimize the effects of stress on blood glucose and body, all animals including the spares received daily sham doses with phosphate buffered saline pH 7.2 (dose volume 5 mL/kg) via gavage beginning on Study Day −5 to Day −1. 20% Glucose in drinking water (200 g/L) was provided ad libitum for 24 hr after streptozotocin injection on Day −14 and Day −7.
On Days −14 and −7, streptozotocin was administered at 30 mg/kg/day QD intraperitoneally. Starting on Day 1, control and test compound were administered on the following schedule.
On Days −7 to −1 and on Days 1, 8, and 14 non-fasting blood glucose was measured. On Day 15, an oral glucose tolerance test was administered. The animals were weighed and the animals were placed in clean cages without food. Access to water was provided throughout the procedure. The animals were fasted for five hours and a blood glucose measurement was determined. The animals were dosed via oral gavage with 2 g/kg glucose (10 mL/kg). Blood glucose was determined via venipuncture. The second drop of blood from the animal was placed on a hand-held glucometer (Abbott Alpha Trak) at the following times relative to the glucose dose: zero (just prior to glucose dose), 15, 30, 60, 90, and 120 min. Following the final blood glucose measurement, food was returned to the cages. On Day 17, 4-hour fasting glucose was measured. Serum samples were used to measure insulin by ELISA. Analysis was performed in one to three days of each collection. On Day 17, terminal blood collection was obtained at about 8 mL per animal and measured for blood glucose.
ZDF rats were treated daily with Compound 10, vehicle, or pioglitazone for sixteen days and monitored for an additional two weeks post-treatment until Day 29. STZ rat models were induced through pre-treatment of animals on a high-fat diet with low doses of streptozotocin at Day −14 and Day −7 prior to starting treatment at Day Zero until Day 16. ZDF and STZ rats were monitored for fasting blood glucose levels, oral glucose tolerance test (OGTT), insulin and C-peptide levels, HOMA-IR (Homeostatic Model Assessment of Insulin Resistance), blood lipemic levels, and body weight according to the schematic for each model below. ZDF rats were analyzed for indicated readouts for fifteen days post-treatment for OGTT at Day 29, and serum insulin and C-peptide at Day 31.
STZ Rat Model—three treatment groups 1. Vehicle; 2. Compound 10 at 175 mg/kg; and 3. Pioglitazone at 30 mg/kg; n=10 per group. […] Rats were monitored for the following parameters through dosing—body weight, blood glucose levels, and OGTT.

Toledo = assay: DLBCL cell line proliferation (Cell Titer Glo, four days): Toledo; type: cell-based; conditions: DHL, MYC/BCL2
Method: as §1

Structure (SMILES): C=CC(=O)N[C@@H]1CCCN(Cc2ccnc(C(=O)Nc3ccc(-c4cc5c(N6CCOCC6)ncnc5[nH]4)cc3)c2)C1 [Compound A, N-[4-[4-(4-morpholinyl)-7H-pyrrolo[2,3-d]pyrimidin-6-yl]phenyl]-4-[[3(R)-[(1-oxo-2-propen-1-yl)amino]-1-piperidinyl]methyl]-2-pyridinecarboxamide]
- Average % Max Inhibition by Compound A (DOHH2): 99.7%
- GI50 ([1]; the 31st table c1, read-out: KRAS G12C GI50 (μM) NSCLC (8)): 0.36 to 0.57 µM
- GI50 ([1]; the 31st table c2, read-out: KRAS G12D GI50 (μM) Pancreatic (1)): 0.43 µM
- GI50 ([1]; the 31st table c3, read-out: KRAS G13D GI50 (μM) CRC (1)): 0.57 µM
- GI50 ([1]; the 31st table c4, read-out: KRAS G12V GI50 (μM) NSCLC (1)): 0.29 µM
- GI50 ([1]; the 31st table c6, read-out: GI50 Summary Tumor Type): 0.42 µM
- GI50 ([1]; the 31st table c7 (second block of heads), read-out: KRAS G12C GI50 (μM) NSCLC (8)): 0.34 µM
- GI50 ([1]; the 31st table c8 (second block of heads), read-out: KRAS G12D GI50 (μM) Pancreatic (1)): 0.37 to 0.57 µM
- GI50 ([1]; the 31st table c9 (second block of heads), read-out: KRAS G13D GI50 (μM) CRC (1)): 0.45 µM
- GI50 ([1]; the 31st table c10 (second block of heads), read-out: KRAS G12V GI50 (μM) NSCLC (1)): 1.6 µM
- growth inhibition of KRAS-mutated cell lines compared to a known KRAS therapeutic ([1]; all cancer cell types tested): significantly greater growth inhibition
- inhibition of growth ([1]; most of fourteen CRC, NSCLC, pancreatic KRAS mutated cell lines, four-day treatment): > 90%
- inhibition of cell viability ([1]; seven of ten KRAS G12C NSCLC cell lines): ≥ 90%
- KRAS G12V GI50 (μM) NSCLC (1) ([1]; the 31st table c10 (second block of heads)): LR (Limited Response (LR) = % growth inhibition <30%)
- IC50 [2]: 0.1 to 0.3 µM
- OGTT AUC reduction ([3]; STZ rats, Day 15, p<0.05): 41%
- insulin in the non-fasting and fasting states ([3]; STZ-induced rats (FIG. 20A, 20B)): maintenance or reduction of insulin
- non-fasting glucose ([3]; STZ-induced rats, 175 mg/kg/day PO QD, compared to vehicle and control, listed as Compound 10, 175 mg/kg/day): reduction of glucose levels; also recorded: sharp reduction in non-fasting glucose
- insulin in the non-fasting state ([3]; STZ-induced rats, Days 1 and 8 (FIG. 19)): significant reduction of insulin
- oral glucose tolerance test, glucose control ([3]; STZ-induced rats, after fifteen days of treatment): significant glucose control
- Average % Max Inhibition by Compound A (Toledo): 98.8%
